Legend:
[1] = system: human leukemic Jurkat cells; assay: Pro-apoptotic features, Annexin V-FITC flow cytometry; format: cell-based; settings: 4 hours
Procedure: Proapoptotic features were assayed using human Jurkat cells. The cells were cultivated in RPMI medium supplemented with 10% FBS and antibiotics. Just before experiments cells were plated into the fresh medium at 4×10^5 cells/ml in 24-well cultivation plates. They were treated with increasing concentrations of manumycin A (positive control) and colabomycin E for 4 hours. Cells were then harvested by centrifugation and apoptotic cells were labeled by Annexin V-FITC. The stained cells were subsequently analyzed by flow cytometry analysis in a Guava EasyCyte flow cytometer and the obtained data were evaluated using FlowJo software.)

[2] = system: Gram^+ bacteria, mainly staphylococci and streptococci; assay: Antibacterial activity, disc diffusion method; format: cell-based
Procedure: (§1) FIG. 10: Antibacterial features of colabomycin E—disc diffusion method. Colabomycin E samples were applied to standard 6 mm discs; therefore the zone diameters bellow 7 mm mean no growth inhibition. The strains kindly provided by the Czech National Collection of Type Cultures.
(§2) Antibacterial activity of colabomycin E was tested by disc diffusion method. The strains were cultivated on MH agar plates at 36° C., aerobically for 18 hrs. For streptococci the media was supplemented with 5% sheep blood and the bacteria were cultivated aerobically for 20 hrs in 5% CO2. Colabomycin E samples dissolved in dioxane were applied to standard 6 mm discs; therefore zone diameters below 7 mm indicate no growth inhibition. The anti-inflammatory effect of colabomycin E was assayed on the TNFα-stimulated human monocyte/macrophage cell line THP-1. The cells were cultured in RPMI-1640 medium, supplemented with 10% heat inactivated fetal calf serum (FCS), L-glutamine, penicillin and streptomycin. Cells were seeded into 6-well tissue culture plates at a density of 2×10^6 cells per 2 ml per well and cultured under a 5% CO2 atmosphere at 37° C. THP-1 cells were stimulated with TNFα (50 ng/ml) under serum free conditions in the presence of colabomycin or manumycin A.

Gram^− = assay: Antibacterial activity, disc diffusion method; format: cell-based
Procedure: as §1, §2

[3] = system: IL-1β release from THP-1 cells (caspase 1); assay: IL-1β release from TNFα-stimulated THP-1 cells; format: cell-based, human; settings: for concentration at which the dose curve reached an inhibitory plateau (IL-1β release) / concentration from which IL-1β release is significantly inhibited: TNFα 50 ng/ml
Procedure: as §2
Unstimulated cells were used as controls. IL-1β release was measured through flow cytometry in culture supernatants by Fluorokine MAP human base kit A using the Luminex^100 System. In the first step, 50 μl of the samples/standards were incubated with 50 μl of microparticles for 3 hours at RT on a horizontal orbital microplate shaker. After washing the unbound substances, 50 μl of the secondary antibodies conjugated with biotin was added to each well and incubated the samples/standards for another 1 hour. After the incubation, the unbound secondary antibodies were washed and 50 μl of the Streptavidin-PE was added. After the 30 minutes of incubation, the samples/standards were washed and resuspended the microparticles in 100 μl of wash buffer. Samples/standards were read using a Luminex analyzer.

[4] = system: IL-8 production in THP-1 cells; assay: IL-8 production in THP-1 cells stimulated with TNFα; format: cell-based, human; settings: 0.5 μM
Procedure: as §2

[5] = system: IL-18 production in THP-1 cells; assay: IL-18 production in THP-1 cells stimulated with TNFα; format: cell-based, human; settings: 0.5 μM
Procedure: as §2

[6] = system: IL-6 production in THP-1 cells; assay: IL-6 production in THP-1 cells stimulated with TNFα; format: cell-based, human; settings: 0.5 μM
Procedure: as §2

Molecule | pro-apoptotic features ([1]; 5 μM) | pro-apoptotic effect relative to manumycin A [1] | anti-bacterial effects (overall) [2] | growth of Gram+ bacteria ([2]; in higher concentrations) | effect on Gram− bacteria (Gram^−) | IL-1β release from THP-1 cells [3] | concentration at which the dose curve reached an inhibitory plateau (IL-1β release) [3] [µM] | concentration from which IL-1β release is significantly inhibited [3] [µM] | IL-8 production [4] | IL-18 production [5] | IL-6 production [6]
Colabomycin E | weak pro-apoptotic features | substantially weaker | quite mild | suppresses growth | no effect | significantly inhibited | 0.5 | 0.25 | inhibit | inhibit | inhibit
CCCC[C@@H](C)/C=C(C)/C=C(\C)C(=O)NC1=C[C@@](O)(/C=C/C=C/C=C/C(=O)NC2=C(O)CCC2=O)[C@@H]2O[C@@H]2C1=O [manumycin A, reference compound] |  |  |  |  |  |  | 0.5 | 0.25 |  |  | 
